Results on 60 compounds are retold here after the METLIN SMRT retention time set (Domingo-Almenara et al. 2019).

The nature of this data set: gradient 5% acetonitrile 3 min, to 50% in 2 min, to 85% in 15 min, held 3 min, 100 µL/min. Particulars: column: Zorbax Extend-C18 2.1 x 50 mm; eluents: water / acetonitrile, 0.1% formic acid. In short, it runs like this:
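Retention time was recorded from adduct peaks, which were picked computationally and each inspected manually. Pure standards ran in mixtures of ~100 molecules on HPLC coupled to a quadrupole time-of-flight mass spectrometer, in positive and negative ionization mode, through a Zorbax Extend-C18 column (2.1 × 50 mm, 1.8 μm) at 100 μL/min. Eluents were water and acetonitrile, each with 0.1% formic acid.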
With `O=[N+]([O-])c1cccc(-c2ccc(SCc3ccccn3)nn2)c1`, the RP-LC retention time turned out to be 637 s.

On to `NC(=O)c1ccccc1NC(=O)Cc1cn(Cc2ccccc2)c2ccccc12`, for which the RP-LC retention time worked out at 853 s.

For the compound `CCc1cccc(NC(=O)C2CCCN(c3cc(=O)n(C)c(=O)n3C)C2)c1` (stereo not given), the RP-LC retention time worked out at 794 s.

Regarding `Cn1nc(-c2nc(C3CC3)no2)c2c1CCN(C(=O)Nc1cccc(F)c1)C2`, the RP-LC retention time was 840 s.

Regarding `CC1(CNC(=O)c2ccccc2Br)CCOCC1`, the RP-LC retention time is 698 s.

`Cc1ccc(NC(=O)N2CCC(n3c(-c4ccoc4)nc4cccnc43)C2)cc1` (stereo not given) came in with an RP-LC retention time of 740 s.

In the case of `COC(=O)c1nnn(-c2ccc(C)c(Cl)c2)c1C(=O)OC`, the RP-LC retention time was 965 s.

Turning to `CCOC(=O)c1c(NCCC(C)C)c2cccc(Cl)c2[nH]c1=O`, the RP-LC retention time worked out at 890 s.

Compound `CN1C(=O)c2cc(C(=O)NCc3ccccc3)nn2CC1(C)C(=O)NCc1ccccc1` (stereo not given) gave an RP-LC retention time of 685 s.

In the case of `COCCN1C(=O)CCC2(C(=O)NCCc3ccncc3)CCCC=C12` (stereo not given), the RP-LC retention time amounted to 542 s.

`CS(=O)(=O)N1C[C@H]2CCN(Cc3cccc(Cl)c3F)C[C@H]21` returned an RP-LC retention time of 607 s.

For the compound `Cc1ccc(NC(=O)CCC2CCN(c3cc(NC4CC4)ncn3)CC2)c(C)c1`, the RP-LC retention time was determined as 714 s.

As to `Cc1cccc(NC(=O)N2CCCC2c2cc(C)no2)c1` (stereo not given), the RP-LC retention time turned out to be 780 s.

Turning to `COC(=O)c1nc(NC(=O)Cn2nc3c(cc2=O)CCCC3)sc1CC(C)C`, the RP-LC retention time was determined as 855 s.

Compound `CCc1cc(=O)n(CC(=O)Nc2cccc(Cl)c2)c(-c2ccccc2)n1` yielded an RP-LC retention time of 1220 s.

On to `COCCn1cc(CC(=O)Nc2cccc(SC)c2)c2cccnc21`, for which the RP-LC retention time was 787 s.

`Cc1nn(-c2ccccc2)c(C)c1C=NN1CCN(Cc2ccccc2)CC1` had an RP-LC retention time of 739 s.

For the compound `O=C1NCCCn2nc(C3CCN(C(=O)Nc4cccc(C(F)(F)F)c4)CC3)cc21`, the RP-LC retention time turned out to be 721 s.

`COc1ccc(S(=O)(=O)N2CCCC(C(=O)NCCO)C2)cc1C` (stereo not given) gave an RP-LC retention time of 669 s.

`CCOc1ccccc1NC(=O)N1CCCC1c1nc(-c2ccc(F)cc2F)no1` (stereo not given) gave an RP-LC retention time of 1100 s.

The compound `CCOc1ccc(C(=O)n2nc(C)c(S(=O)(=O)N3CCC(C)CC3)c2C)cc1` yielded an RP-LC retention time of 1280 s.

Turning to `CN(C)CCNC(=O)C1CCN(c2nc3ccc(-c4ccccc4)nc3s2)CC1`, the RP-LC retention time came out at 667 s.

`Cc1c(Cl)cccc1NC(=O)CN1CCc2[nH]c3c(C)cc(F)cc3c(=O)c2C1` yielded an RP-LC retention time of 662 s.

As to `CCOc1ccc(NS(=O)(=O)c2cc(C(=O)N3CCN(c4ccccc4OC)CC3)n[nH]2)cc1`, the RP-LC retention time is 846 s.

`O=C(NCCc1ccccn1)c1sc2ncccc2c1-n1cccc1` registered an RP-LC retention time of 610 s.

Consider `COc1ccc(C(C)NC(=O)c2nc(N(C)C)c3c(C)cc(C)nc3n2)cc1` (stereo not given), for which the RP-LC retention time came to 658 s.

As for `CCc1ccccc1NS(=O)(=O)c1ccc2c(c1)C(=O)N(CC)c1ncccc1O2`, the RP-LC retention time came to 1050 s.

`O=C([C@H]1C[C@@H](F)CN1S(=O)(=O)c1cccc(Cl)c1)N1CCOCC1` yielded an RP-LC retention time of 717 s.

As for `CC(C)CC(=O)N1C[C@H](c2nc(-c3ccccc3)no2)[C@@H](C)C1`, the RP-LC retention time came to 951 s.

Compound `CCOC(=O)C1CCCN(C(=O)CCCOc2cc(=O)n(C)c3ccccc23)C1` (stereo not given) returned an RP-LC retention time of 800 s.

Compound `O=C(Nc1ccc(Cl)cc1F)c1cnc(-c2ccccc2)nc1-c1ccncc1` showed an RP-LC retention time of 982 s.

Compound `O=C(NCCC1CCN(S(=O)(=O)c2ccccc2)CC1)NC1CCCCC1` yielded an RP-LC retention time of 865 s.

`O=C(COc1ccccc1)N1CCN(S(=O)(=O)c2cc3c4c(c2)CCC(=O)N4CCC3)CC1`: the RP-LC retention time amounted to 782 s.

Compound `COc1ccc(NC(=O)Cn2c(C)cc(-c3nnc(C4CC4)o3)c2C)cc1` showed an RP-LC retention time of 779 s.

Compound `Nc1ncnc2c1nc(Br)n2C1O[C@H]2COP(=O)(O)O[C@@H]2[C@@H]1O` (stereo not given in full) showed an RP-LC retention time of 549 s.

`Cc1ccc(NC(=O)CCNc2cnc3cnccn23)cc1F`: the RP-LC retention time is 578 s.

Consider `CCCN1CCn2cc(C(=O)NCc3cccc(Br)c3)nc2C1`, for which the RP-LC retention time stood at 624 s.

`COc1cccc(N2CCN(c3ccc(S(=O)(=O)C(C)C)nn3)CC2)c1`: the RP-LC retention time amounted to 847 s.

`CCc1ccccc1NC(=O)Cn1nc2n(c1=O)CCCC2` yielded an RP-LC retention time of 674 s.

As to `Cc1cc(NC(=O)CSc2[nH]c(=O)ncc2C)on1`, the RP-LC retention time turned out to be 567 s.

On to `Cc1nc(-c2ccccc2)nn1C1CCN(S(=O)(=O)c2ccc(Cl)s2)C1` (stereo not given), for which the RP-LC retention time turned out to be 902 s.

In turn, `O=C(NCC1CCOCC1)Nc1ccccc1` showed an RP-LC retention time of 656 s.

With `COc1cccc(CNC(=O)CCc2nc3c(C)cccc3c(=O)n2C)c1`, the RP-LC retention time worked out at 801 s.

In turn, `COc1ccc(Nc2nc(-c3nnn(-c4cc(F)ccc4F)c3C)ns2)cc1` came in with an RP-LC retention time of 949 s.

`O=C(NCCCn1nc(-c2ccc(Cl)cc2)ccc1=O)C1CCCC1` yielded an RP-LC retention time of 798 s.

`Cc1ccc(-n2nc(C)c3sc(N4CCCC(C(=O)NC(C)(C)C)C4)nc32)cc1` (stereo not given) registered an RP-LC retention time of 1170 s.

`Cc1ccc(N2C(=O)C3N=NN(Cc4nc(-c5ccc(Br)cc5)no4)C3C2=O)cc1C` (stereo not given) gave an RP-LC retention time of 1130 s.

Take `O=C(NCC1CCCCC1)c1cccc(CN2C(=O)C3CCCN3C(=O)c3ccccc32)c1` (stereo not given): the RP-LC retention time was found to be 846 s.

Compound `COc1ccc(C(=O)Nc2nnc(SCc3ccccc3Cl)s2)cc1OC` registered an RP-LC retention time of 954 s.

The compound `Cc1ccc(N(C)S(=O)(=O)c2ccc3c(c2)CCCC(=O)N3)cc1C` displayed an RP-LC retention time of 854 s.

`Cc1ccc(-c2noc(-c3nc(Cc4ccc(F)cc4)no3)n2)cc1`: the RP-LC retention time amounted to 1180 s.

Compound `Cc1noc2nc(C)n(CC(=O)NC(C)c3ccccc3)c(=O)c12` (stereo not given) showed an RP-LC retention time of 756 s.

As to `CC(C)c1noc(-c2cc(=O)n(CC(=O)NCc3cccc(Cl)c3)c3ccccc23)n1`, the RP-LC retention time turned out to be 1030 s.

In turn, `Cc1nc2cc(-c3noc(CNC(=O)Cc4ccccc4)n3)ccc2o1` had an RP-LC retention time of 780 s.

`O=C(c1ccc(Br)o1)N1CCN(c2ccc(-c3noc(C4CC4)n3)cc2)CC1` had an RP-LC retention time of 1020 s.

On to `O=c1c2sccc2n(Cc2nc(-c3cccc(C(F)(F)F)c3)no2)c(=O)n1-c1ccccc1F`, for which the RP-LC retention time stood at 1090 s.

As to `Cc1c(-c2nnc(C(=O)NCCCN3CCOCC3)o2)oc2c(C)cccc12`, the RP-LC retention time came out at 696 s.

Take `CCN1CCN(Cc2nc3cc(NC(=O)CC(C)C)ccc3n2C(C)C)CC1`: the RP-LC retention time was determined as 571 s.

Take `Cc1nc2ccc(Cl)cn2c(=O)c1NC(=O)c1cccs1`: the RP-LC retention time worked out at 620 s.

Compound `Cc1ccc(C)c(C(=O)NCCc2cn(CC(C)C)c3ncccc23)c1` showed an RP-LC retention time of 892 s.
